Measured values as given in PubChem BioAssay (NCI).
Several values for one entry are separate records, joined by “and”; a condition that tells them apart may be missing. Equal values may be shown once.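 Five concentrations, 48 hours, 96-well plates. GI50 marks 50% less growth. TGI denotes the concentration required for complete inhibition of growth.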

System: TK-10 renal
Assay: NCI anticancer screen, dose series, 48 h

Point of comparison: `CCOc1ccccc1-n1c(CN2CCN(C(=O)COc3ccc(CNCCCCCCN4C5CCCC4CC(OC(=O)Nc4cc(C)ccc4OC)C5)cc3)CC2)nc2ccccc2c1=O` (stereo not given), GI50 1720 nM. Against it:
- CC1(C)COC(c2ccc(C(F)(F)F)cc2C(O)c2ccc3ccccc3c2)=N1 (stereo not given) — higher, > 100000 nM
- CC(=O)[O][Hg][c]1c(N)c(C)cc(C)c1F — within 1.5-fold, 1870 nM
- CSc1ccccc1C#C/C=C\C#Cc1ccccc1N1CCCC1=O — higher, > 24600 nM
- NC1CCC(Nc2nc(NCc3ccc(-c4ccco4)nc3)c3ncn(C4CCCC4)c3n2)CC1 (stereo not given) — 11-fold lower, 160 nM
- O=C(CCl)N1c2ccccc2Oc2ccc3ccccc3c21 — 2.2-fold lower, 769 nM
- COc1ccc(-c2cc(-c3ccc(Nc4nc(Nc5ccccc5)nc(Nc5ccc(Cl)cc5)n4)cc3)nc(N)c2C#N)cc1 — 1.8-fold lower, 974 nM

Point of comparison: `CCOc1ccccc1-n1c(CN2CCN(C(=O)COc3ccc(CNCCCCCCN4C5CCCC4CC(OC(=O)Nc4cc(C)ccc4OC)C5)cc3)CC2)nc2ccccc2c1=O` (stereo not given), TGI 3.14 µM. Against it:
- COc1ccc2nc3cc(Cl)ccc3c(Sc3ccccc3[N+](=O)[O-])c2c1 — higher, > 100 µM
- O=C(O)C(Cc1ccccc1)N1C(=O)N/C(=C\c2ccc(F)cc2)C1=O (stereo not given) — higher, > 100 µM
- CC1(C)COC(c2ccc(C(F)(F)F)cc2C(O)c2ccc3ccccc3c2)=N1 (stereo not given) — higher, > 100 µM
- COc1ccc(NC(=O)c2cc(OC)cc(OC)c2)cc1 — higher, > 100 µM
- COc1ccc(/C=C\c2cc(OC)c3c(c2)OCO3)c(O)c1O — higher, > 86.6 µM
- CC[C@@]12CCCN3CC[C@]4(c5cccc(OC)c5N(C(C)=O)[C@@H]4CC1)[C@H]32 — higher, > 100 µM
- CC(=O)[O][Hg][c]1c(N)c(C)cc(C)c1F — within 1.5-fold, 3.32 µM
- CSc1ccccc1C#C/C=C\C#Cc1ccccc1N1CCCC1=O — higher, > 50 µM
- NC1CCC(Nc2nc(NCc3ccc(-c4ccco4)nc3)c3ncn(C4CCCC4)c3n2)CC1 (stereo not given) — 4.1-fold higher, 12.8 µM
- O=C(CCl)N1c2ccccc2Oc2ccc3ccccc3c21 — 1.8-fold lower, 1.7 µM
- Cc1ccc(-c2nnc(-c3ccc4ccccc4c3)o2)cc1 — higher, > 60.6 µM
- COc1ccc(-c2cc(-c3ccc(Nc4nc(Nc5ccccc5)nc(Nc5ccc(Cl)cc5)n4)cc3)nc(N)c2C#N)cc1 — 1.8-fold lower, 1.79 µM
- O=C1C2=C(SCCS2)C(=O)c2ccccc21 — within 1.5-fold, 3.24 µM

System: RXF 393 renal
Assay: NCI anticancer screen, dose series, 48 h

Point of comparison: `COc1ccc(-c2cc(-c3ccc(Nc4nc(Nc5ccccc5)nc(Nc5ccc(Cl)cc5)n4)cc3)nc(N)c2C#N)cc1`, GI50 654 nM. Against it:
- CCOc1ccccc1-n1c(CN2CCN(C(=O)COc3ccc(CNCCCCCCN4C5CCCC4CC(OC(=O)Nc4cc(C)ccc4OC)C5)cc3)CC2)nc2ccccc2c1=O (stereo not given) — 2.1-fold higher, 1380 nM
- CC1(C)COC(c2ccc(C(F)(F)F)cc2C(O)c2ccc3ccccc3c2)=N1 (stereo not given) — higher, > 10000 nM
- CC(=O)[O][Hg][c]1c(N)c(C)cc(C)c1F — 2.3-fold higher, 1520 nM
- CSc1ccccc1C#C/C=C\C#Cc1ccccc1N1CCCC1=O — 4.4-fold higher, 2910 nM
- NC1CCC(Nc2nc(NCc3ccc(-c4ccco4)nc3)c3ncn(C4CCCC4)c3n2)CC1 (stereo not given) — 37-fold lower, 17.9 nM
- O=C(CCl)N1c2ccccc2Oc2ccc3ccccc3c21 — 2.6-fold higher, 1730 nM

Point of comparison: `CCOc1ccccc1-n1c(CN2CCN(C(=O)COc3ccc(CNCCCCCCN4C5CCCC4CC(OC(=O)Nc4cc(C)ccc4OC)C5)cc3)CC2)nc2ccccc2c1=O` (stereo not given), TGI 2.88 µM. Against it:
- COc1ccc2nc3cc(Cl)ccc3c(Sc3ccccc3[N+](=O)[O-])c2c1 — 32-fold higher, 93.2 µM
- O=C(O)C(Cc1ccccc1)N1C(=O)N/C(=C\c2ccc(F)cc2)C1=O (stereo not given) — higher, > 100 µM
- COc1ccc(NC(=O)c2cc(OC)cc(OC)c2)cc1 — 19-fold higher, 55.9 µM
- COc1ccc(/C=C\c2cc(OC)c3c(c2)OCO3)c(O)c1O — 4.1-fold higher, 11.7 µM
- CC[C@@]12CCCN3CC[C@]4(c5cccc(OC)c5N(C(C)=O)[C@@H]4CC1)[C@H]32 — higher, > 100 µM
- CC(=O)[O][Hg][c]1c(N)c(C)cc(C)c1F — the same, 2.88 µM
- CSc1ccccc1C#C/C=C\C#Cc1ccccc1N1CCCC1=O — 9-fold higher, 25.8 µM
- NC1CCC(Nc2nc(NCc3ccc(-c4ccco4)nc3)c3ncn(C4CCCC4)c3n2)CC1 (stereo not given) — 72-fold lower, 0.04 µM
- O=C(CCl)N1c2ccccc2Oc2ccc3ccccc3c21 — within 1.5-fold, 3.17 µM
- Cc1ccc(-c2nnc(-c3ccc4ccccc4c3)o2)cc1 — 19-fold higher, 55.1 µM
- COc1ccc(-c2cc(-c3ccc(Nc4nc(Nc5ccccc5)nc(Nc5ccc(Cl)cc5)n4)cc3)nc(N)c2C#N)cc1 — 1.5-fold lower, 1.89 µM
- O=C1C2=C(SCCS2)C(=O)c2ccccc21 — within 1.5-fold, 3.56 µM

`CC1(C)COC(c2ccc(C(F)(F)F)cc2C(O)c2ccc3ccccc3c2)=N1` (stereo not given) was tested, and the TGI was > 10 µM and 44.3 µM.

System: CCRF-CEM leukemia
Assay: NCI anticancer screen, dose series, 48 h

Point of comparison: `CCOc1ccccc1-n1c(CN2CCN(C(=O)COc3ccc(CNCCCCCCN4C5CCCC4CC(OC(=O)Nc4cc(C)ccc4OC)C5)cc3)CC2)nc2ccccc2c1=O` (stereo not given), GI50 160 nM. Against it:
- CC1(C)COC(c2ccc(C(F)(F)F)cc2C(O)c2ccc3ccccc3c2)=N1 (stereo not given) — higher, > 100000 nM

Point of comparison: `COc1ccc(/C=C\c2cc(OC)c3c(c2)OCO3)c(O)c1O`, TGI 14.3 µM. Against it:
- CCOc1ccccc1-n1c(CN2CCN(C(=O)COc3ccc(CNCCCCCCN4C5CCCC4CC(OC(=O)Nc4cc(C)ccc4OC)C5)cc3)CC2)nc2ccccc2c1=O (stereo not given) — 12-fold lower, 1.21 µM
- COc1ccc2nc3cc(Cl)ccc3c(Sc3ccccc3[N+](=O)[O-])c2c1 — higher, > 100 µM
- O=C(O)C(Cc1ccccc1)N1C(=O)N/C(=C\c2ccc(F)cc2)C1=O (stereo not given) — higher, > 100 µM
- CC1(C)COC(c2ccc(C(F)(F)F)cc2C(O)c2ccc3ccccc3c2)=N1 (stereo not given) — higher, > 100 µM
- COc1ccc(NC(=O)c2cc(OC)cc(OC)c2)cc1 — higher, > 100 µM
